Measured values reported in patent US7326689B2, “Pseudomycins useful against plant diseases” (Eli Lilly and Company, priority 2000, dated 2008).

How the values were obtained:
Assay in all cases: Antifungal growth assay in potato dextrose broth, 24-well
Format in all cases: cell-based
Design in all cases: key: NI, no inhibition; p (partial), at least 50% inhibited
[1] = system: Phoma chrysamthecola; settings: five day results
Description: (§1) Fungi to be tested were propagated on potato dextrose agar (PDA) plates at room temperature. Stock solutions of pseudomycins and depsipeptide were suspended in dimethylsulfoxide (DMSO) (Sigma) at 5 mg/ml and stored at −20C. Serial dilutions of compounds were done the day of the experiment. All serial dilutions were made in DMSO. […] These are noted in the raw data section.
(§2) Assays were performed in 24-well cell culture clusters (Costar 3524), with 990 ul potato dextrose broth (PDB, Difco) and 10 ul of the compound to be tested in each well. Initial concentrations tested were 50-1.56 ug/ml (final concentration of pseudomycin). Actual concentrations of pseudomycins tested were 50, 25, 12.5, 6.25, 3.12 and 1.56 ug/ml. Each well was inoculated with the appropriate fungus. Unless noted, the fungal inoculum consisted of an ˜4 mm^2 piece of PDA with fungal mycelium. The exceptions were as follows. Ustilago maydis: this fungus grows much like a yeast on PDA, and cells were scraped from the PDA stock plate, resuspended in PDB and 10 ul inoculum added to each well. Monilinia sp.: this fungal mycelium grows as a very loose sheet on top of PDA and would not adhere to agar blocks. Fungal mycelium was ground with a metal rod in 500 ul PDB and 10 ul inoculum was added to each well. Mycosphaeella fijiensis, Septoria passerinii, Septoria triticii: these fungi all grow very slowly and the results were difficult to score if a small piece of agar with fungal mycelium on it was used as an inoculum. For these fungi, the mycelium was ground with a metal rod in 500 ul PDB and 10 ul inoculum was added to each well.
(§3) Wells were scored for fungal growth at two days and five days. Some slow growing fungi were scored at later days for growth because assessment was not possible at two or five days. Growth was scored by comparison to a control consisting of fungus inoculated into 990 ul potato dextrose broth and 10 ul of DMSO (Dimethylsulfoxide). An additional control consisting of fungal inoculum in PDB only was performed to ensure that the DMSO was not inhibitory to fungal growth.
(§4) For assays that were repeated, new stock solutions were made from a second shipment of pseudomycins. Note that pseudomycin B′ and depsipeptide stock solutions were remade from first shipment materials because these were not included in the second shipment. […] Actual concentrations of pseudomycins tested were 2, 1, 0.5, 0.25, 0.125 and 0.0625 ug/ml. A-PO4 and A-FB=pseudomycin A phosphate salt and free base respectively.
(§5) Table 2: Two day results—concentration indicated is lowest level of compound (ug /ml) that results is no growth. NI, no inhibition; p (partial), at least 50% inhibited; -, not determined. If number of assays was greater than one, number of assays performed on the fungus is noted in parentheses. For several slow-growing fungi, days elapsed before observation (if different than two) are noted.
(§6) Table 3: Five day results—concentration indicated is lowest level of compound (ug /ml) that results in no growth. NI, no inhibition; p (partial), at least 50% inhibited; -, not performed on the fungus is noted in parentheses. For several slow-growing fungi, days elapsed before observation (if different than five) are noted.

[2] = system: Phytophthora parasitica
Description: as §1, §2, §3, §4, §5, §6

[3] = system: Verticillium dahliae; settings: 2x assays
Description: as §1, §2, §3, §4, §5, §6

[4] = system: Aphanomyces sp.; settings: 2x assays
Description: as §1, §2, §3, §4, §5, §6

[5] = system: Diplodia natalensis
Description: as §1, §2, §3, §4, §5, §6

[6] = system: Pestalotiopsis microspora NE-32
Description: as §1, §2, §3, §4, §5, §6

[7] = system: Fusarium culmorum
Description: as §1, §2, §3, §4, §5, §6

[8] = system: Fusarium solani
Description: as §1, §2, §3, §4, §5, §6

[9] = system: Fusarium avenaceum
Description: as §1, §2, §3, §4, §5, §6

[10] = system: Stagonospora nodorum
Description: as §1, §2, §3, §4, §5, §6

[11] = system: Sclerotinia sclerotiorum; settings: 2x assays
Description: as §1, §2, §3, §4, §5, §6

[12] = system: Botrytis alli; settings: 2x assays
Description: as §1, §2, §3, §4, §5, §6

[13] = system: Tapesia yallundae; settings: 2x assays
Description: as §1, §2, §3, §4, §5, §6

[14] = system: Fusarium oxysporum cubense
Description: as §1, §2, §3, §4, §5, §6

[15] = system: Cochliobolus carbonum
Description: as §1, §2, §3, §4, §5, §6

[16] = system: Drechslera tritici-repentis
Description: as §1, §2, §3, §4, §5, §6

[17] = system: Phytophthora ultimum
Description: as §1, §2, §3, §4, §5, §6

[18] = system: Tapesia acuformis; settings: 2x assays
Description: as §1, §2, §3, §4, §5, §6

[19] = system: Phytophthora cactorum
Description: as §1, §2, §3, §4, §5, §6

For pseudomycin A-FB, the “lowest level of compound that results in no growth” value (shortened to “lowest level … in no growth”) [1] was “p at 50”, the “lowest level … in no growth” value ([2]; five day results) was “NI” and the “lowest level … in no growth” value ([2]; two day results) was “NI”. The “lowest level … in no growth” value ([3]; five day results) was “p at 50”, the “lowest level … in no growth” value ([3]; two day results) was 50 µg/mL and the “lowest level … in no growth” value ([4]; five day results) was “NI”. For the same substance, the “lowest level … in no growth” value ([4]; two day results) was “NI”, the “lowest level … in no growth” value ([5]; five day results) was “NI” and the “lowest level … in no growth” value ([5]; two day results) was “NI”. For the same substance, the “lowest level … in no growth” value ([6]; five day results) was “NI”, the “lowest level … in no growth” value ([6]; two day results) was “p at 50” and the “lowest level … in no growth” value ([7]; five day results) was “NI”. The “lowest level … in no growth” value ([7]; two day results) was “NI”, the “lowest level … in no growth” value ([8]; five day results) was “NI” and the “lowest level … in no growth” value ([8]; two day results) was “p at 50”. The “lowest level … in no growth” value ([9]; five day results) was “NI”, the “lowest level … in no growth” value ([9]; two day results) was “NI” and the “lowest level … in no growth” value ([10]; five day results) was “NI”. For the same substance, the “lowest level … in no growth” value ([10]; two day results) was “NI”, the “lowest level … in no growth” value ([11]; five day results) was “NI” and the “lowest level … in no growth” value ([11]; two day results) was “NI”. For the same substance, the “lowest level … in no growth” value ([12]; five day results) was “NI”, the “lowest level … in no growth” value ([12]; two day results) was “NI” and the “lowest level … in no growth” value ([13]; five day results) was 25 µg/mL. For the same substance, the “lowest level … in no growth” value ([13]; two day results) was 12.5 µg/mL, the “lowest level … in no growth” value ([14]; five day results) was “NI” and the “lowest level … in no growth” value ([14]; two day results) was “NI”. The “lowest level … in no growth” value ([15]; five day results) was “NI”, the “lowest level … in no growth” value ([15]; two day results) was “NI” and the “lowest level … in no growth” value ([16]; five day results) was “NI”. For the same substance, the “lowest level … in no growth” value ([16]; two day results, 2x assays) was 25 µg/mL, the “lowest level … in no growth” value ([17]; five day results) was “NI” and the “lowest level … in no growth” value ([17]; two day results) was “NI”. For the same substance, the “lowest level … in no growth” value ([18]; five day results) was “NI”, the “lowest level … in no growth” value ([18]; two day results) was “NI” and the “lowest level … in no growth” value ([19]; five day results) was “NI”. The “lowest level … in no growth” value ([19]; two day results) was “NI”.
With pseudomycin A-PO4 the “lowest level … in no growth” value [1] was “NI”, the “lowest level … in no growth” value ([2]; five day results) was “NI” and the “lowest level … in no growth” value ([2]; two day results) was “NI”. The “lowest level … in no growth” value ([3]; five day results) was “p at 50”, the “lowest level … in no growth” value ([3]; two day results) was “p at 50” and the “lowest level … in no growth” value ([4]; five day results) was “p at 50”. The “lowest level … in no growth” value ([4]; two day results) was 50 µg/mL, the “lowest level … in no growth” value ([5]; five day results) was “NI” and the “lowest level … in no growth” value ([5]; two day results) was “NI”. For the same substance, the “lowest level … in no growth” value ([6]; five day results) was “NI”, the “lowest level … in no growth” value ([6]; two day results) was “p at 50” and the “lowest level … in no growth” value ([7]; five day results) was “NI”. The “lowest level … in no growth” value ([7]; two day results) was “NI”, the “lowest level … in no growth” value ([8]; five day results) was “NI” and the “lowest level … in no growth” value ([8]; two day results) was “NI”. The “lowest level … in no growth” value ([9]; five day results) was “NI”, the “lowest level … in no growth” value ([9]; two day results) was “NI” and the “lowest level … in no growth” value ([10]; five day results) was “NI”. The “lowest level … in no growth” value ([10]; two day results) was “NI”, the “lowest level … in no growth” value ([11]; five day results) was “NI” and the “lowest level … in no growth” value ([11]; two day results) was “NI”. The “lowest level … in no growth” value ([12]; five day results) was “p at 50”, the “lowest level … in no growth” value ([12]; two day results) was 50 µg/mL and the “lowest level … in no growth” value ([13]; five day results) was 50 µg/mL. For the same substance, the “lowest level … in no growth” value ([13]; two day results) was 25 µg/mL, the “lowest level … in no growth” value ([14]; five day results) was “NI” and the “lowest level … in no growth” value ([14]; two day results) was “NI”. The “lowest level … in no growth” value ([15]; five day results) was “NI”, the “lowest level … in no growth” value ([15]; two day results) was “NI” and the “lowest level … in no growth” value ([16]; five day results) was “p at 50”. For the same substance, the “lowest level … in no growth” value ([16]; two day results, 2x assays) was 50 µg/mL, the “lowest level … in no growth” value ([17]; five day results) was “NI” and the “lowest level … in no growth” value ([17]; two day results) was “NI”. For the same substance, the “lowest level … in no growth” value ([18]; five day results) was 50 µg/mL, the “lowest level … in no growth” value ([18]; two day results) was 50 µg/mL and the “lowest level … in no growth” value ([19]; five day results) was “NI”. For the same substance, the “lowest level … in no growth” value ([19]; two day results) was “NI”.
